Source: PMC10883997, “Multiparametric in vitro and in vivo analysis of the safety profile of self-assembling peptides” (Scientific Reports, 2024)
The star is where a group is joined. Biotin = O=C1N[C@H]2[C@H](CS[C@H]2CCCCC(=O)*)N1

Columns and labels:
[1] = tested on: TK6 human lymphoblastoid cell line; test: Thymidine kinase gene mutation assay (TK GMA); format: cell-based; settings: TK6 cells, 4 h exposure, negative control 5.4 × 10^–6
Description: (§1) The general guidance from OECD TG 487 and 490 were followed[26],[41]. TK6 cell suspensions were treated with serially diluted SAPs molecules at 37 °C for 4 h, washed and resuspended in fresh medium, and cultured in new flasks for the MN and TK assays. We conducted the MN test and the TK mutation assay 48 h and 72 h later, respectively.
To measure genotoxicity, cells were subcultured at a maximum density of 2.5 × 10^5 cells/mL (at most 20 × 0^6 cells) for 3 additional days to allow phenotypic expression of the TK gene prior to mutant selection. Forty-eight hours after treatment, the cells were prepared for the MN assay. […] At least 2000 intact cells for each treatment were examined, and the cells containing MN were scored. Cells containing one or more micronuclei were recorded as micronucleated cells. […] The MN frequencies between non-treated and treated cells and the concentration–response relationship were statistically analyzed. […]
The cultures were maintained for another 24 h to allow phenotypic expression prior to plating for TK assay to determine the mutant fractions. […] Mutation frequencies (MFs) were finally calculated from cells grown in TFT selection medium or non-selection medium (for 7 days) via the Poisson distribution method. […] Changes in MFs relative to the negative controls (fold-change) were calculated and expressed graphically.

[2] = tested on: TK6 human lymphoblastoid cell line; test: In vitro micronucleus (MN) assay; format: cell-based; settings: 4 h exposure, scored 48 h after exposure, 2000 cells per culture, three independent experiments
Description: as §1
To measure genotoxicity, cells were subcultured at a maximum density of 2.5 × 10^5 cells/mL (at most 20 × 0^6 cells) for 3 additional days to allow phenotypic expression of the TK gene prior to mutant selection. Forty-eight hours after treatment, the cells were prepared for the MN assay. Briefly, a small portion of cell culture from the flask was transferred to a 15 mL tube and centrifuged at 1200 rpm for 5 min at RT. The supernatant was then removed, and the pelleted cells were resuspended in PBS and placed in a cytospin funnel where cells were cytospun for 4 min at 900 rpm on microscope coverslips. A Diff-Quik staining was performed for microscope scoring. At least 2000 intact cells for each treatment were examined, and the cells containing MN were scored. Cells containing one or more micronuclei were recorded as micronucleated cells. […] The MN frequencies between non-treated and treated cells and the concentration–response relationship were statistically analyzed. […]

[3] = tested on: female Sprague–Dawley rats; test: In vivo acute systemic toxicity of SAPs, subcutaneous injection; design: species or system Rattus norvegicus; settings: for Body weights at the beginning of the experiment (means) / Body weight at the end of the experiment (means): single s.c. injection 10 mL/kg, mean ± SD, n = 5; for Body weights at the beginning of the experiment (means): day 0; for Body weight at the end of the experiment (means): day 5
Description: The general guidance from the ISO10993 to Biological evaluation of medical devices was followed. Animals were housed in plastic cages with free access to drinking water and a pelleted basal diet under controlled conditions of temperature (22 °C ± 3 °C), humidity (50 ± 10%) and light (12/12 h light/dark cycle). Rats were quarantined for the first 7 days and randomly divided into experimental and control groups. All animals were bred and maintained at CIBA (Biomedical Research Center of Aragon; Department of Experimental Surgery). Animal experimentation was approved by the Ethics Committee for Animal Experimentation from the University of Zaragoza (protocol number PI31/22), and all authors complied with the ARRIVE guidelines.SAPs or electrospun mats, empty micro-channels, and HS-filled micro-channels were subcutaneously administered to female Sprague–Dawley rats (Rattus norvegicus) 7 weeks old, non-pregnant, and nulliparous. The concentration of each SAP was: HS: 1%, 68: 3%, 46: 5%, C1: 3%, 65L: 3% and B42: 1%. On the day before administration, the animals were weighed, and the hair of their thoracic back was shaved. On day 1, the different SAPs were administered in one single dose by subcutaneous injection to each rat corresponding to each group. To devices, a skin incision of about 1 cm and subcutaneous dissection were performed under sterile conditions. Then, the products provided were introduced into the subcutaneous space, one piece per animal. Animals were weighed. Animals were euthanized by trained personnel using medical-grade Carbon dioxide (CO2). CO2 inhalation is the most common method of euthanasia used for small animals (i.e., mice, rats, guinea pigs, and hamsters). It is considered an acceptable euthanasia agent for small animals when properly administered. It was accepted by the Ethics Committee for Animal Experimentation from the University of Zaragoza (protocol number PI31/22). For histological assessment, lung, liver, spleen, kidneys, and duodenum were removed from rats, fixed with 4% paraformaldehyde, and embedded in paraffin. Sections from these samples were stained with hematoxylin and eosin (H&E). Blood samples were drawn at the end of the study by cardiac puncture. They were analysed with VetScan V2.
Data are expressed by mean ± standard deviation of the mean. Body weight comparison between groups was assessed using the repeated measures two-way ANOVA test. Bonferroni posthoc multiple comparisons were also used. Analysis of biochemical parameters was made with one-way ANOVA. They were performed using GraphPad Prism 8 (8.0.2).

[4] = tested on: Mouse Embryonic Fibroblasts (MEFs); test: Scratch wound (wound healing) assay, fibroblasts; format: cell-based; settings: MEF fibroblasts, 0.01 mg/mL, IncuCyte scan every 4 h; three independent experiments
Description: Prior to initiating the assay, cells were grown to confluence in a 96-well plate at 37 °C in an atmosphere of 5% CO2 and, with the help of a 96-pin IncuCyte® Wound Maker simultaneously created precise and reproducible wounds in all wells of a 96-well plate by gently removing the cells from the confluent monolayer. After wounding, immediately aspirate the media from each well and wash the cells twice with culture media (100 µL/well). After washing, 100 µL of media containing 0.01 mg/mL of the appropriate agent was added to the corresponding well, and the plate was placed inside the IncuCyte. Assay plates were then equilibrated within the IncuCyte® for a minimum of 15 min before the first scan. The software was set to scan the plate every 4 h for migration assays.

[5] = rat blood at day 5, VetScan V2, one-way ANOVA, within expected reference values

| Compound | mutant frequency (MF) ([1]; Mit C 8.3 µg/mL (positive control)) | mutant frequency (MF) ([1]; Mit C 25 µg/mL (positive control)) | percentage of micronucleated cells versus negative control [2] | Sodium blood test (NA+) compared with the control group [3, 5] | albumin (ALB) levels compared with the control group ([3]; rat blood, cardiac puncture at day 5, VetScan V2, one-way ANOVA, all group means incl. control slightly above reference) | body weight evolution versus control group ([3]; rats, s.c. 10 mL/kg, days 0, 2, 5, two-way ANOVA, p = 0.03, no significant change at single time points) | Body weights at the beginning of the experiment (means) ([3]; rats) | Body weight at the end of the experiment (means) ([3]; rats) | globulin blood tests (GLOB) compared with the control group [3, 5] | cell migration versus control (area under relative wound density % vs time curve) [4] |
| --- | --- | --- | --- | --- | --- | --- | --- | --- | --- | --- |
| CO[C@@]12[C@H](COC(N)=O)C3=C(C(=O)C(C)=C(N)C3=O)N1C[C@@H]1N[C@@H]12 [Mit C, Mitomycin C] | 14.6 × 10^–6 | 175.3 × 10^–6 | significant increase |  |  |  |  |  |  |  |
| Ac-FAQRVPPGGG(LDLD)3-CONH2 [compound 68] |  |  |  | increased | Significant higher | significantly different | 238.1 ± 8.05 g | 247.9 ± 7.60 g |  |  |
| Biotin-GGGAFASAKA-NH2 [B42] |  |  |  |  |  |  | 243.8 ± 9.10 g | 260.8 ± 10.9 g |  |  |
| FAQRVPPGGG(LDLK)3-CONH2 [compound 46] |  |  |  |  |  |  | 250.5 ± 9.10 g | 265.2 ± 8.20 g | increased | reduced cell migration |
